Data reported in patent US12551533B2, “Intranasal neuropeptides for use in stress-related impairments” (New York Medical College, priority 2019, dated 2026).
Entries after “also recorded” stand apart in the source; their conditions may differ.

Key:
[1] = system: Single Prolonged Stress (SPS) model of PTSD; assay: Elevated plus maze (EPM) two weeks after SPS stressors, early intervention with intranasal peptide; type: in vivo; conditions: intranasal NPY 200 μg or D-H 150 μg per rat immediately after SPS
Procedure: (§1) FIG. 6 depicts a diagram of the experimental procedure (FIGS. 7-8). […] After two weeks the animals were tested on the elevated plus maze (EPM) for 5 min and 7 days later for social interaction (SI).
(§2) The experimental design was as depicted in FIG. 6. […] After two weeks they were tested on the elevated plus maze (EPM) for 5 min and 7 days later for social interaction (SI).

[2] = system: Single Prolonged Stress (SPS) model of PTSD; assay: EPM after intranasal treatment given 2 weeks after SPS (reversal of manifested symptoms); type: in vivo; conditions: intranasal 300 μg/rat given 2 weeks after SPS; EPM four days later; vs SPS/V
Excerpt: FIG. 9A. Scheme of the experiment; FIG. 9B. Duration in the closed arms, an indication of anxiety; FIG. 9C. Anxiety index. *p<0.05, ***p<0.001.

[3] = system: Single Prolonged Stress (SPS) model of PTSD; assay: Forced Swim Test (FST) 12 days after SPS stressors, early intervention with intranasal peptide; type: in vivo; conditions: intranasal 150 μg/rat immediately after SPS, vs SPS/V
Procedure: (§3) After 7 days, the animals were tested on the elevated plus maze (EPM) for 5 min for various features of anxiety and locomotion and 5 days later for depressive/despair symptoms on the Forced Swim Tet (FST).
The immobility time on the FST, which reflects depressive-lie behavior, despair or altered coping style was determined.
(§4) After a two week accommodation period rats were exposed to SPS stressors. […] Control unstressed rats were handled briefly and weighed on the same day. They were left undisturbed for a week and then tested for anxiety on Elevated Plus Maze (EPM) together with unstressed control rats. Five days later all the animals were tested for depresssive/dispair behavior by the Forced Swim Test (FST).

[4] = system: Single Prolonged Stress (SPS) model of PTSD; assay: Elevated plus maze (EPM) one week after SPS stressors, early intervention with intranasal peptide; type: in vivo, rat
Procedure: as §3
Based on the performance on the EPM the anxiety index was calculated for each rat. […] (FIG. 2B)
as §4
Based on the performance on the EPM the anxiety index was calculated for each rat. The anxiety index=1−[(time spent in open arm/total time on the maze)/2+(number of entries to the open arms/total exploration on the maze)/2] and is shown in FIG. 2. […] Each point represents the values for an individual animal.

[5] = system: Single Prolonged Stress (SPS) model of PTSD; assay: Social interaction test with juvenile rat, three weeks after SPS stressors; type: in vivo; conditions: intranasal NPY 200 μg or D-H 150 μg per rat immediately after SPS; SI 7 days after the EPM
Procedure: as §1, §2

[6] = system: SPS elicited development of depressive symptoms; conditions: intranasal infusion after traumatic stress; cited from earlier work
[7] = intranasal 150 μg/rat immediately after SPS, one week after SPS
[8] = intranasal 150 μg/rat immediately after SPS, one week after SPS, listed as [D-^26His]NPY

Substance	entries and duration in the open arms of the EPM [1]	duration in the closed arms of the EPM [2]	immobility time in the Forced Swim Test ([3]; listed as D-H)	immobility time in the Forced Swim Test ([3]; listed as DH)	distance travelled on the EPM (locomotion) [4, 7]	duration of head dips on the EPM [4, 7]	frequency of head dips on the EPM [4, 7]	duration of head dips on the EPM [4, 8]	frequency of head dips on the EPM [4, 8]	interaction time on the social interaction test [5]	number of approaches on the social interaction test [5]	development of depressive-like symptoms after traumatic stress [6]	SPS elicited anxiety (anxiety index on the EPM, FIG. 2B) ([4]; intranasal, at a concentration which prevents SPS elicited depressive symptoms, seven days after SPS)
[D^26-His]NPY [[D^26His]NPY]	as effective as NPY	less time in the closed arms	superior to NPY	reduced; also recorded: significantly more effective than NPY	did not reduce the distance traveled	prevent the SPS triggered reduction; also recorded: more effective than NPY	prevent the SPS triggered reduction; also recorded: more effective than NPY	recovered	recovered	prevented	prevented	–	–
[Leu^31Pro^34]NPY [reference compound]	–	–	–	–	–	–	–	–	–	–	–	prevented development of depressive-like symptoms	did not reduce the SPS elicited anxiety; also recorded: ineffective
